# Experimental data published in US12290500B2, “Anaplerotic agents for treatment of disorders of propionate and long chain fat metabolism” (University of Pittsburgh—Of the Commonwealth System of …, priority 2016, dated 2025).
# Test system: PCC deficient cells
# Method: Control cells and PCC cells obtained from patients with PA and generated through CRISPR/CAS9 technology are grown in media with and without succinate supplementation and the metabolite profile of cell extracts is determined by metabolomic techniques. First, PCC deficient cells are grown in T-25 flasks in standard DMEM medium with and without supplemental succinate (0.1-2 mmol/L). Cells are harvested, lysed by sonication and intracellular concentrations of TCA cycle intermediates are measured by liquid chromatography-mass spectrometry (LC-MS)/MS. Next, flux through the TCA cycle is measured by incorporation of radiolabel from uniformly labeled ^14C-palmitate into TCA cycle intermediates after incubation with PPC deficient and control cells. PCC deficient cell lines are grown in DMEM complete media and transferred to 6-well plates at a seeding density of ˜200,000 cells/well. The media in the wells is changed after 24 hours to DMEM media containing 5% dialyzed fetal bovine serum (FBS). After approximately one hour, the first time point (180 minutes) receives DMEM 5% dialyzed FBS containing universally labeled palmitate with ^13C […]. The cells are incubated at 37° C., 4% CO2 for the following time points: 180 minutes, 60 minutes, 30 minutes, 10 minutes and 0 minutes. The 0 minute time point receives no isotopic labeling.
compound,measurement,setting,value
O=C(O)CCC(=O)O [succinate],decreased level of TCA cycle intermediates,"cell lines from patients with PA or MMA, succinate supplementation 0.1-2 mmol/L",expected to be reversed
same,impaired incorporation of label from palmitate through the TCA cycle into protein,succinate supplementation,expected to be reversed
